“And” between values parts separate entries of the source, which are not always exact repeats. Identical values can stand only once. Toxic doses and inconclusive results are not listed.
Tested on: L1210 leukemia ip in BDF1 mice, survival T/C
Experiment: NCI In Vivo Anticancer Drug Screen. Data for tumor model L1210 Leukemia (intraperitoneal) in B6D2F1 (BDF1) mice
Conditions: endpoint: mean survival time, higher = longer survival
Method in brief: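 Antitumor effect is assessed in tumor-bearing animals. Survival in the compound arm is compared with a vehicle-dosed control arm and expressed as their quotient.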

[1] = dose: 75.0 mg/kg/injection, schedule: Q01DX001 (ip), vehicle: saline
[2] = dose: 150.0 mg/kg/injection, schedule: Q01DX001 (ip), vehicle: saline
[3] = dose: 100.0 mg/kg/injection, schedule: Q04DX003 (ip), vehicle: saline with Tween-80
[4] = dose: 100.0 mg/kg/injection, schedule: Q01DX001 (ip), vehicle: saline
[5] = dose: 200.0 mg/kg/injection, schedule: Q01DX001 (ip), vehicle: saline
[6] = dose: 400.0 mg/kg/injection, schedule: Q01DX001 (ip), vehicle: saline
[7] = dose: 100.0 mg/kg/injection, schedule: Q01DX009 (ip), vehicle: saline
[8] = dose: 200.0 mg/kg/injection, schedule: Q01DX009 (ip), vehicle: saline
[9] = dose: 200.0 mg/kg/injection, schedule: Q04DX003 (ip), vehicle: saline with Tween-80
[10] = dose: 400.0 mg/kg/injection, schedule: Q01DX009 (ip), vehicle: saline
[11] = dose: 50.0 mg/kg/injection, schedule: Q01DX009 (ip), vehicle: saline with Tween-80
[12] = dose: 100.0 mg/kg/injection, schedule: Q01DX009 (ip), vehicle: saline with Tween-80
[13] = dose: 100.0 mg/kg/injection, schedule: Q04DX002 (ip), vehicle: Klucel (hydroxypropylcellulose) (HPC)
[14] = dose: 200.0 mg/kg/injection, schedule: Q04DX002 (ip), vehicle: Klucel (hydroxypropylcellulose) (HPC)
[15] = dose: 400.0 mg/kg/injection, schedule: Q04DX002 (ip), vehicle: Klucel (hydroxypropylcellulose) (HPC)
[16] = dose: 100.0 mg/kg/injection, schedule: Q01DX009 (ip), vehicle: Klucel (hydroxypropylcellulose) (HPC)
[17] = dose: 100.0 mg/kg/injection, schedule: Q04DX003 (ip), vehicle: saline
[18] = dose: 200.0 mg/kg/injection, schedule: Q01DX009 (ip), vehicle: Klucel (hydroxypropylcellulose) (HPC)
[19] = dose: 200.0 mg/kg/injection, schedule: Q04DX003 (ip), vehicle: saline
[20] = dose: 400.0 mg/kg/injection, schedule: Q01DX009 (ip), vehicle: Klucel (hydroxypropylcellulose) (HPC)
[21] = dose: 400.0 mg/kg/injection, schedule: Q04DX003 (ip), vehicle: saline
[22] = dose: 200.0 mg/kg/injection, schedule: Q01DX009 (ip), vehicle: saline with Tween-80
[23] = dose: 50.0 mg/kg/injection, schedule: Q01DX009 (ip), vehicle: Klucel (hydroxypropylcellulose) (HPC)

Structure (SMILES): CC(=O)C1CCc2c(O)c3c(c(O)c2C1)C(=O)c1ccccc1C3=O (configuration not stated)
- T/C (dose: 87.5 mg/kg/injection, schedule: Q04DX003 (ip), vehicle: saline with Tween-80): 94 % of control
- T/C (dose: 175.0 mg/kg/injection, schedule: Q04DX003 (ip), vehicle: saline with Tween-80): 91 % of control
- T/C (dose: 350.0 mg/kg/injection, schedule: Q04DX003 (ip), vehicle: saline with Tween-80): 94 % of control

Structure (SMILES): Cc1nc(N)[nH]c(=O)c1CCCNc1ccc(CCCCC2(CCl)OCCO2)cc1
- T/C (dose: 50.0 mg/kg/injection, schedule: Q01DX Z (ip), vehicle: carboxymethylcellulose (CMC)): 98 % of control
- T/C (dose: 100.0 mg/kg/injection, schedule: Q01DX Z (ip), vehicle: carboxymethylcellulose (CMC)): 101 % of control
- T/C (dose: 200.0 mg/kg/injection, schedule: Q01DX Z (ip), vehicle: carboxymethylcellulose (CMC)): 95 % of control
- T/C (dose: 400.0 mg/kg/injection, schedule: Q01DX Z (ip), vehicle: carboxymethylcellulose (CMC)): 101 % of control

Structure (SMILES): CCC1N=C(N)N=C(N)N1c1ccc(Cl)cc1 (configuration not stated)
- T/C [1]: 100 % of control
- T/C [2]: 98 % of control

Structure (SMILES): CCOP(=S)(OCC)SC(C)(C)C
- T/C (dose: 25.0 mg/kg/injection, schedule: Q04DX003 (ip), vehicle: saline with Tween-80): 95 % of control
- T/C (dose: 50.0 mg/kg/injection, schedule: Q04DX003 (ip), vehicle: saline with Tween-80): 103 % of control
- T/C [3]: 104 % of control and 108 % of control

Structure (SMILES): O=C(CC(NCc1ccccc1)C(=O)O)c1ccccc1 (configuration not stated)
- T/C [4]: 100 % of control
- T/C [5]: 97 % of control
- T/C [6]: 97 % of control

Structure (SMILES): COc1cc(Br)c(CCC(=O)O)cc1OC
- T/C [7]: 97 % of control
- T/C [3]: 96 % of control
- T/C [8]: 94 % of control
- T/C [9]: 114 % of control
- T/C [10]: 100 % of control
- T/C (dose: 400.0 mg/kg/injection, schedule: Q04DX003 (ip), vehicle: saline with Tween-80): 91 % of control

Structure (SMILES): O=S(=O)(OC1CCCCC1Br)c1ccc(Br)cc1 (configuration not stated)
- T/C [11]: 98 % of control
- T/C [12]: 95 % of control

Structure (SMILES): CN1C(=O)N(C)C(=O)C2(C1=O)C1(C(=O)N(C)C(=O)N(C)C1=O)C21C(=O)N(C)C(=O)N(C)C1=O
- T/C [13]: 102 % of control
- T/C [14]: 100 % of control
- T/C [15]: 89 % of control

Structure (SMILES): CC(=O)Oc1c(Br)c(-c2c(C)cc(C)c(Br)c2C)c(OC(C)=O)c(Br)c1-c1c(C)cc(C)c(Br)c1C
- T/C [16]: 97 % of control
- T/C [17]: 113 % of control
- T/C [18]: 96 % of control
- T/C [19]: 95 % of control
- T/C [20]: 97 % of control
- T/C [21]: 101 % of control

Structure (SMILES): COC1CCC(/C=C(\C#N)C2CCC(C)CC2)CC1 (configuration not stated)
- T/C (dose: 100.0 mg/kg/injection, schedule: Q04DX002 (ip), vehicle: saline with Tween-80): 94 % of control
- T/C (dose: 200.0 mg/kg/injection, schedule: Q04DX002 (ip), vehicle: saline with Tween-80): 97 % of control
- T/C (dose: 400.0 mg/kg/injection, schedule: Q04DX002 (ip), vehicle: saline with Tween-80): 94 % of control

Structure (SMILES): CC(=O)C(N)CCC(=O)O (configuration not stated)
- T/C [7]: 106 % of control
- T/C [17]: 97 % of control
- T/C [8]: 101 % of control
- T/C [19]: 97 % of control
- T/C [10]: 95 % of control
- T/C [21]: 94 % of control

Structure (SMILES): CCN1CCC(CNc2cc(C)nc(/N=C(\N)Nc3ccc(Cl)c(Cl)c3)n2)C1 (configuration not stated)
- T/C (dose: 12.5 mg/kg/injection, schedule: Q04DX003 (ip), vehicle: Klucel (hydroxypropylcellulose) (HPC)): 98 % of control
- T/C (dose: 25.0 mg/kg/injection, schedule: Q04DX003 (ip), vehicle: Klucel (hydroxypropylcellulose) (HPC)): 102 % of control
- T/C (dose: 50.0 mg/kg/injection, schedule: Q04DX003 (ip), vehicle: Klucel (hydroxypropylcellulose) (HPC)): 107 % of control

Structure (SMILES): C=C1c2ccccc2N(C)C1(COc1ccc(Cl)c(C)c1)OC(=O)c1cccc(Cl)c1 (configuration not stated)
- T/C [13]: 95 % of control
- T/C [14]: 95 % of control
- T/C [15]: 88 % of control

Structure (SMILES): O=C(O)c1[nH]c(=O)[nH]c(=O)c1F.[Ga]
- T/C [11]: 109 % of control
- T/C [12]: 91 % of control
- T/C [3]: 101 % of control
- T/C (dose: 177.0 mg/kg/injection, schedule: Q01DX001 (ip), vehicle: saline with Tween-80): 160 % of control
- T/C (dose: 200.0 mg/kg/injection, schedule: Q01DX001 (ip), vehicle: saline with Tween-80): 174 % of control
- T/C [22]: 99 % of control
- T/C [9]: 102 % of control
- T/C (dose: 400.0 mg/kg/injection, schedule: Q01DX001 (ip), vehicle: saline with Tween-80): 197 % of control

Structure (SMILES): CC(C)CCSc1nc(N)nc2nc[nH]c12
- T/C (dose: 62.5 mg/kg/injection, schedule: Q01DX Z (ip), vehicle: carboxymethylcellulose (CMC)): 122 % of control
- T/C (dose: 125.0 mg/kg/injection, schedule: Q01DX Z (ip), vehicle: carboxymethylcellulose (CMC)): 107 % of control
- T/C (dose: 250.0 mg/kg/injection, schedule: Q01DX Z (ip), vehicle: carboxymethylcellulose (CMC)): 100 % of control

Structure (SMILES): COc1ccccc1N1C(=O)CSC1=S
- T/C [12]: 102 % of control
- T/C [22]: 106 % of control
- T/C (dose: 400.0 mg/kg/injection, schedule: Q01DX009 (ip), vehicle: saline with Tween-80): 100 % of control

Structure (SMILES): CCCCNS(=O)(=O)c1ccc(OC)c(NC(=O)c2ccc(C(=O)Nc3cc(S(=O)(=O)NCCCC)ccc3OC)cc2)c1
- T/C [4]: 105 % of control
- T/C [5]: 94 % of control
- T/C [6]: 94 % of control

Structure (SMILES): O=C1NC(c2ccccc2)(c2ccccc2)C(=O)N1CCO
- T/C [4]: 100 % of control
- T/C [7]: 96 % of control
- T/C [17]: 107 % of control
- T/C [5]: 92 % of control
- T/C [8]: 96 % of control
- T/C [19]: 104 % of control
- T/C [6]: 102 % of control
- T/C [10]: 90 % of control
- T/C [21]: 98 % of control

Structure (SMILES): COc1ccc(C(=O)NC(=O)C(C(=O)c2ccc(OC)cc2)c2ccccc2)cc1 (configuration not stated)
- T/C (dose: 100.0 mg/kg/injection, schedule: Q01DX001 (ip), vehicle: other): 86 % of control

Structure (SMILES): C=CCN1CCC(C(=O)CC)(c2ccccc2)CC1
- T/C (dose: 12.5 mg/kg/injection, schedule: Q01DX009 (ip), vehicle: Klucel (hydroxypropylcellulose) (HPC)): 100 % of control
- T/C (dose: 25.0 mg/kg/injection, schedule: Q01DX009 (ip), vehicle: Klucel (hydroxypropylcellulose) (HPC)): 98 % of control
- T/C [23]: 106 % of control

Structure (SMILES): Cc1ccc(C(=O)CC(Sc2ccccc2N)c2c(Cl)cccc2Cl)c(C)c1 (configuration not stated)
- T/C [23]: 94 % of control
- T/C (dose: 100.0 mg/kg/injection, schedule: Q01DX005 (ip), vehicle: Klucel (hydroxypropylcellulose) (HPC)): 108 % of control
- T/C [16]: 94 % of control
- T/C [13]: 98 % of control
- T/C (dose: 200.0 mg/kg/injection, schedule: Q01DX005 (ip), vehicle: Klucel (hydroxypropylcellulose) (HPC)): 89 % of control
- T/C [18]: 91 % of control
- T/C [14]: 109 % of control
- T/C [15]: 117 % of control

Structure (SMILES): COc1ccccc1NC(=O)Nc1ccccc1F
- T/C [16]: 100 % of control
- T/C (dose: 100.0 mg/kg/injection, schedule: Q04DX003 (ip), vehicle: Klucel (hydroxypropylcellulose) (HPC)): 89 % of control
- T/C [18]: 105 % of control
- T/C (dose: 200.0 mg/kg/injection, schedule: Q04DX003 (ip), vehicle: Klucel (hydroxypropylcellulose) (HPC)): 89 % of control
- T/C [20]: 97 % of control
- T/C (dose: 400.0 mg/kg/injection, schedule: Q04DX003 (ip), vehicle: Klucel (hydroxypropylcellulose) (HPC)): 97 % of control

Structure (SMILES): CCCCCCCCNC(C(=O)c1ccc(Cl)cc1)c1ccc(Cl)cc1 (configuration not stated)
- T/C (dose: 50.0 mg/kg/injection, schedule: Q01DX009 (ip), vehicle: saline): 92 % of control
- T/C [7]: 91 % of control
- T/C [17]: 98 % of control
- T/C [8]: 97 % of control
- T/C [19]: 102 % of control
- T/C [21]: 90 % of control

Structure (SMILES): CSC(=O)C(C)(C)C
- T/C [1]: 103 % of control
- T/C [2]: 97 % of control

Structure (SMILES): O=C(O)C(=O)C(Cl)Br (configuration not stated)
- T/C (dose: 12.5 mg/kg/injection, schedule: Q01DX001 (ip), vehicle: saline): 111 % of control
- T/C (dose: 25.0 mg/kg/injection, schedule: Q01DX001 (ip), vehicle: saline): 118 % of control
- T/C (dose: 50.0 mg/kg/injection, schedule: Q01DX001 (ip), vehicle: saline): 111 % of control
